{"source": "patent EP4669337B1", "about": "“AGENTS USEFUL FOR THE PREVENTION OR TREATMENT OF ALLERGIC & INFLAMMATORY DISORDERS” (ATOPIA THERAPEUTICS SA, priority 2023, dated 2025)", "test_system": "engineered human embryonic kidney (HEK-293) TGF-β reporter cells", "test": "HEK-Blue hTGFβ reporter cell assay (Smad-inducible SEAP, optical density at 650 nm)", "type": "cell-based", "conditions": "20 µl of a 3µM inhibitor solution in 200 µl total volume, added 1 hour before the test compound; SEQ ID NO:31 at 6.25-150 µg/ml; overnight incubation", "experimental": "Polypeptides of the invention have been tested in the cells above in order to determine cell-surface receptors through which they signal and thereby induce immunotolerance. For this purpose, a peptide of the invention of SEQ ID NO:31 was administered to commercial engineered human embryonic kidney (HEK-293) TGF-β reporter cells that induce the production of Smad-inducible secreted embryonic alkaline phosphatase (SEAP) when human TGF-β triggers a signaling cascade leading to the formation of a Smad3/Smad4 complex which can be monitored by optical density at 650 nm as follows.\nIn a 96-well plate (200 µl total volume), 20 µl of a solution containing 3µM of the inhibitor LY-364947 in medium, or medium alone, are placed in a well, followed by the addition 160 µl of the HEK-Blue hTGFβ cell suspension. After 1 hour incubation, 20 µl of the test compound or the positive control are added to the wells. […] SEAP activity is assayed from the supernatant of HEK-Blue hTGFb cell by reading the optical density at 650 nm using a spectrophotometer after 3 hours incubation at 37°C with Quanti-blue, a SEAP detection reagent.\nIn this particular case, the formation of the Smad3/Smad4 complex (illustrated by the measured OD650 as shown on Figure 8) was induced by the presence of SEQ ID NO:31 at the following concentrations: 6.25, 12.5, 25, 50, 75, 100, 125, and 150 µg/ml. […]"}
{"smiles": "c1ccc(-c2nn3c(c2-c2ccnc4cc(OCCN5CCOCC5)ccc24)CCC3)nc1", "note": "[LY2109761]", "values": [{"measurement": "Smad3/Smad4 signaling cascade induced by SEQ ID NO:31 (SEAP, OD650)", "value": "antagonized"}]}
